PMC4209162, “Specific aromatic foldamers potently inhibit spontaneous and seeded Aβ42 and Aβ43 fibril assembly” (Biochemical Journal, 2014)
“Also recorded” adds a separate entry of the source.

How the values were obtained:
Aβ42 [1] = molecular target: T1, Aβ42 (Homo sapiens, UniProt P05067); assay: Spontaneous Aβ42 fibrillization (ThT fluorescence, EM); type: biochemical; conditions: for Inhibition of spontaneous Aβ42 fibrillization: Aβ42 5 μM, foldamer 10 μM, 8 h, agitation, ThT fluorescence (EM 4 h); for Inhibition of spontaneous Aβ42 fibrillization / Inhibition of spontaneous Aβ42 fibrillization, different assembly conditions: 25°C; for Inhibition of spontaneous Aβ42 fibrillization, different assembly conditions: Aβ prepared without DMSO, PBE pH 8, Aβ42 5 μM, foldamer 20 μM, 16 h, ThT
T1 sequence (P05067 672-713 limits assumed): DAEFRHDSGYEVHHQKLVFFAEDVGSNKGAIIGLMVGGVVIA

Aβ43 [2] = molecular target: T2, Aβ43 (Homo sapiens, UniProt P05067); assay: Spontaneous Aβ43 fibrillization (ThT fluorescence, EM); type: biochemical; conditions: for Inhibition of spontaneous Aβ43 fibrillization, different assembly conditions: Aβ prepared without DMSO, PBE pH 8, Aβ43 5 μM, foldamer 20 μM, 16 h
T2 sequence (P05067 672-714 limits assumed): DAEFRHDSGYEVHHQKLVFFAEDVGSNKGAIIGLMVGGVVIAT

Aβ42 [3] = molecular target: T1, Aβ42; assay: Seeded Aβ42 fibrillization (ThT fluorescence, EM); type: biochemical; conditions: for Inhibition of seeded Aβ42 fibrillization, different assembly conditions: Aβ prepared without DMSO, PBE pH 8, Aβ42 5 μM plus seed 0.1 μM monomer, 16 h
Aβ43 [4] = molecular target: T2, Aβ43; assay: Seeded Aβ43 fibrillization (ThT fluorescence, EM); type: biochemical; conditions: ThT; for Inhibition of seeded Aβ43 fibrillization, different assembly conditions: Aβ prepared without DMSO, PBE pH 8, Aβ43 5 μM plus seed 0.1 μM monomer, foldamer 20 μM, 16 h
Aβ42 fibrils = Aβ42 fibrils (Homo sapiens, UniProt P05067); assay: Disassembly of preformed Aβ42 fibrils; type: biochemical; conditions: foldamer in 4-fold molar excess, 24 h (results not shown)
Chain of Aβ42 fibrils (P05067 672-713 limits assumed): as the sequence (P05067 672-713 limits assumed) above

FUS = molecular target: T3, FUS (Homo sapiens, UniProt P35637); assay: FUS aggregation (turbidity, absorbance at 395 nm); type: biochemical; conditions: GST-FUS 5 μM, foldamer 20 μM, plus TEV protease, 25°C, 0–90 min
T3 sequence (P35637 1-526): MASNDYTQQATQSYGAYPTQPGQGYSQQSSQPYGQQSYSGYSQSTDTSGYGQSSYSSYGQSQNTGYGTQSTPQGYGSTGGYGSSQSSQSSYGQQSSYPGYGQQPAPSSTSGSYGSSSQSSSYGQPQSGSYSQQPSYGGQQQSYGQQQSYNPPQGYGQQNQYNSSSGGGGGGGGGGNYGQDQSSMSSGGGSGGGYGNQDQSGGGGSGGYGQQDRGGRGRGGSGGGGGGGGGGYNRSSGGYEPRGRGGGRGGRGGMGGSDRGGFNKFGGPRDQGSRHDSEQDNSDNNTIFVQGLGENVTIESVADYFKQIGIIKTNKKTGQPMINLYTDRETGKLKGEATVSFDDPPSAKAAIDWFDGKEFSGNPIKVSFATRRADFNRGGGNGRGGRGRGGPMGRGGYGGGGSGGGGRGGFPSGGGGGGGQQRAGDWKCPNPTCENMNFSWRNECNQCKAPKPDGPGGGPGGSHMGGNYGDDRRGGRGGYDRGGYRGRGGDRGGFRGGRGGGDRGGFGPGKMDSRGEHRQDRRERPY
Procedure: GST–TEV–FUS was purified as described. Aggregation was initiated by addition of tobbaco etch virus (TEV) protease to GST–TEV–FUS (5 μM) plus or minus foldamer (20 μM) in assembly buffer (50 mM Tris/HCl pH 8, 0.2 M trehalose and 20 mM glutathione). Aggregation was for 0–90 min at 25°C without agitation in a 96-well plate and was assessed by turbidity (absorbance at 395 nm) using a Tecan Infinite M1000 plate reader. No aggregation occurred unless TEV protease was added to separate GST from FUS [58].

Aβ42 oligomers = Aβ42 oligomers (Homo sapiens, UniProt P05067); assay: A11-reactive Aβ42 conformers (ELISA); type: biochemical; conditions: Aβ42 5 μM, foldamer 20 μM, 25°C; for Effect on A11-reactive Aβ42 conformers after 0.5 h: 0.5 h (end of lag phase); for Effect on A11-reactive Aβ42 conformers after 4 h: 4 h (endpoint of fibrillization)
Chain of Aβ42 oligomers (P05067 672-713 limits assumed): as the sequence (P05067 672-713 limits assumed) above

Aβ43 oligomers = Aβ43 oligomers (Homo sapiens, UniProt P05067); assay: A11-reactive Aβ43 conformers (ELISA); type: biochemical; conditions: Aβ43 5 μM, foldamer 20 μM, 25°C; for Effect on A11-reactive Aβ43 conformers after 0.5 h: 0.5 h (end of lag phase); for Effect on A11-reactive Aβ43 conformers after 4 h: 4 h (endpoint of fibrillization)
Chain of Aβ43 oligomers (P05067 672-714 limits assumed): as the sequence (P05067 672-714 limits assumed) above

[5] = test system: SH-SY5Y human neuroblastoma cells; assay: Toxicity of Aβ42 conformers to SH-SY5Y cells (MTT reduction, LDH release); type: cell-based; conditions: 24 h, MTT and LDH; for Effect on toxicity of Aβ42 conformers after 0.5 h of assembly: Aβ42 5 μM assembled with foldamer 20 μM for 0.5 h; for Effect on toxicity of Aβ42 conformers after 4 h of assembly: Aβ42 5 μM assembled with foldamer 20 μM for 4 h
Procedure: (§1) SH-SY5Y human neuroblastoma cells were maintained in Dulbecco's modified Eagle's medium (DMEM) plus 10 mM Hepes, 10% FBS, 4 mM glutamine, penicillin (200 units/ml) and streptomycin (200 μg/ml) in 5% CO2 at 37°C. Cells were differentiated in serum-free DMEM with N2 supplement and 10 μM all-trans-retinoic acid before use. Cells were plated at (10000 cells/well) in 96-well plates and grown overnight. Medium was removed and Aβ conformers or controls were added and cells were incubated for 24 h at 37°C. Toxicity was assessed using an MTT kit (Tox-1; Sigma) or via lactate dehydrogenase (LDH) release using the CytoTox-ONE™ kit (Promega). Toxicity values were normalized to the buffer control without Aβ.

[6] = test system: SH-SY5Y human neuroblastoma cells; assay: Toxicity of Aβ43 conformers to SH-SY5Y cells (MTT reduction, LDH release); type: cell-based; conditions: 24 h, MTT and LDH; for Effect on toxicity of Aβ43 conformers after 0.5 h of assembly: Aβ43 5 μM assembled with foldamer 20 μM for 0.5 h; for Effect on toxicity of Aβ43 conformers after 4 h of assembly: Aβ43 5 μM assembled with foldamer 20 μM for 4 h
Procedure: as §1

Compound: COc1ccc(NC(=O)[C@H](CCCNC(N)=O)NC(=O)c2cc(NC(=O)[C@H](CCCNC(=N)N)NC(=O)c3cc(NC(=O)[C@H](CCCNC(=N)N)NC(=O)c4cc(NC(=O)[C@@H](N)CCCNC(=N)N)ccc4OC)ccc3OC)ccc2OC)cc1C(N)=O [(Arg-Sal)3-(Cit-Sal)-CONH2]
- IC50 (Aβ42 [1]): ~1600 nM
- IC50 (Aβ43 [2]): ~3100 nM

Compound: (Arg-Benz)4-CONH2
- Inhibition of spontaneous Aβ42 fibrillization (Aβ42 [1]): strong inhibitors; also recorded: potent inhibitors
- Inhibition of spontaneous Aβ42 fibrillization, different assembly conditions (Aβ42 [1]): inhibited
- Extent of seeded Aβ42 fibrillization at 4-fold molar excess of foldamer (Aβ42 [3]; Aβ42 5 μM plus seed 0.1 μM monomer, foldamer 20 μM): some fibrillization occurred
- Inhibition of seeded Aβ42 fibrillization (Aβ42 [3]; Aβ42 5 μM plus seed 0.1 μM monomer, foldamer 5, 10 or 20 μM, 0–2 h, 25°C): only inhibited seeded Aβ42 fibrillization when present at a 4-fold molar excess over Aβ42
- Inhibition of seeded Aβ42 fibrillization, different assembly conditions (Aβ42 [3]; foldamer 20 μM): inhibited
- Major Aβ43 species by EM (Aβ43 [2]; Aβ43 5 μM, foldamer 10 μM, 4 h, 25°C): small oligomers were the major species
- Inhibition of spontaneous Aβ43 fibrillization (Aβ43 [2]; Aβ43 5 μM, foldamer 5, 10 or 20 μM, 0–8 h, 25°C, ThT, EM 10 μM 4 h): blocked spontaneous Aβ43 fibrillization
- Inhibition of spontaneous Aβ43 fibrillization, different assembly conditions (Aβ43 [2]; 25°C, ThT): inhibited
- Inhibition of seeded Aβ43 fibrillization (Aβ43 [4]; Aβ43 5 μM plus seed 0.1 μM monomer, foldamer 5, 10 or 20 μM, 0–2 h, 25°C, EM): blocked seeded Aβ43 fibrillization
- Inhibition of seeded Aβ43 fibrillization, different assembly conditions (Aβ43 [4]): inhibited
- Disassembly of Aβ42 fibrils (Aβ42 fibrils): did not disassemble Aβ42 fibrils
- Inhibition of FUS aggregation (FUS): did not inhibit FUS aggregation
- Effect on A11-reactive Aβ42 conformers after 0.5 h (Aβ42 oligomers): had no effect
- Effect on A11-reactive Aβ42 conformers after 4 h (Aβ42 oligomers): remained at higher levels
- Effect on A11-reactive Aβ43 conformers after 0.5 h (Aβ43 oligomers): had no effect
- Effect on A11-reactive Aβ43 conformers after 4 h (Aβ43 oligomers): had a similar effect
- Effect on toxicity of Aβ42 conformers after 0.5 h of assembly [5]: had no effect
- Effect on toxicity of Aβ42 conformers after 4 h of assembly [5]: enhanced
- Effect on toxicity of Aβ43 conformers after 0.5 h of assembly [6]: had no effect
- Effect on toxicity of Aβ43 conformers after 4 h of assembly [6]: enhanced

Compound: (Arg-Sal)2-(Cit-Sal)-(Arg-Sal)-CONH2
- Inhibition of spontaneous Aβ42 fibrillization (Aβ42 [1]): ineffective

Compound: (Arg-Sal-Cit-Sal)2-CONH2
- Inhibition of spontaneous Aβ42 fibrillization (Aβ42 [1]): ineffective

Compound: (Cit-Sal)2-(Arg-Sal)-(Cit-Sal)-CONH2
- Inhibition of spontaneous Aβ42 fibrillization (Aβ42 [1]): ineffective

Compound: (Cit-Sal)4-CONH2
- Inhibition of spontaneous Aβ42 fibrillization (Aβ42 [1]): ineffective
- Inhibition of spontaneous Aβ42 fibrillization, different assembly conditions (Aβ42 [1]): had no effect
- Inhibition of seeded Aβ42 fibrillization, different assembly conditions (Aβ42 [3]; foldamer 20 μM): had no effect
- Inhibition of spontaneous Aβ43 fibrillization, different assembly conditions (Aβ43 [2]; 25°C, ThT): had no effect
- Inhibition of seeded Aβ43 fibrillization, different assembly conditions (Aβ43 [4]): had no effect
- Effect on A11-reactive Aβ42 conformers after 0.5 h (Aβ42 oligomers): had no effect
- Effect on A11-reactive Aβ42 conformers after 4 h (Aβ42 oligomers): had no effect
- Effect on A11-reactive Aβ43 conformers after 0.5 h (Aβ43 oligomers): had no effect
- Effect on A11-reactive Aβ43 conformers after 4 h (Aβ43 oligomers): had no effect
- Effect on toxicity of Aβ42 conformers after 0.5 h of assembly [5]: had no effect on toxicity
- Effect on toxicity of Aβ42 conformers after 4 h of assembly [5]: had no effect on toxicity
- Effect on toxicity of Aβ43 conformers after 0.5 h of assembly [6]: had no effect on toxicity
- Effect on toxicity of Aβ43 conformers after 4 h of assembly [6]: had no effect on toxicity

Compound: (Cit-Sal)-(Arg-Sal)-(Cit-Sal)2-CONH2
- Inhibition of spontaneous Aβ42 fibrillization (Aβ42 [1]): ineffective

Compound: (Lys-Sal)2-CONH2
- Inhibition of spontaneous Aβ42 fibrillization (Aβ42 [1]): failed to inhibit assembly

Compound: (Lys-Sal)3-CONH2
- Inhibition of spontaneous Aβ42 fibrillization (Aβ42 [1]): failed to inhibit assembly
